Data on 1 molecule can be found in patent US8263608B2, “Melanocortin receptor-specific spiro-piperidine compounds” (Palatin Technologies, Inc., priority 2008, dated 2012).

pEC50: −log10 of the molar value.

This assay deals with T1, MC1-R (Homo sapiens, UniProt Q01726).
T1 construct: or, for MC1-R, in HBL cells; endogenous in cells; host or cells: HBL cells
As to the kind of experiment: Assay for agonist activity: intracellular cAMP accumulation (functional assay). The assay is classed as cell-based. The note with it: functional assays at MC1-R. As to the method: Accumulation of intracellular cAMP is examined as a measure of the ability of the test compounds to elicit a functional response in HEK-293 cells that express MC4-R, or, for MC1-R, in HBL cells. Confluent HEK-293 cells that express recombinant hMC4-R, or HBL cells that express MC1-R, are detached from culture plates by incubation in enzyme-free cell dissociation buffer. Dispersed cells are suspended in Earle's Balanced Salt Solution containing 10 mM HEPES (pH 7.5), 1 mM MgCl2, 1 mM glutamine, 0.5% albumin and 0.3 mM 3-isobutyl-1-methyl-xanthine (IBMX), a phosphodiesterase inhibitor. The cells are plated in 96-well plates at a density of 0.5 x 10^5 cells per well and pre-incubated for 30 minutes. Cells are exposed for 1 hour at 37° C. to test compounds dissolved in DMSO (final DMSO concentration of 1%) at a concentration range of 0.05-5000 nM in a total assay volume of 200 μL. NDP-α-MSH is used as the reference agonist. At the end of the incubation period, cells are disrupted by the addition of 50 μL of lysis buffer (cAMP EIA kit, Amersham) followed by vigorous pipetting. Levels of cAMP in the lysates are determined using a cAMP EIA kit (Amersham). Data analysis is performed by nonlinear regression analysis with Graph-Pad Prism® software. The maximum efficacies of the test compounds are compared to that achieved by the reference melanocortin agonist NDP-α-MSH.
A general note: Changes in cAMP serve as a functional read-out for many G protein-coupled receptors.

T1 sequence (Q01726 whole entry): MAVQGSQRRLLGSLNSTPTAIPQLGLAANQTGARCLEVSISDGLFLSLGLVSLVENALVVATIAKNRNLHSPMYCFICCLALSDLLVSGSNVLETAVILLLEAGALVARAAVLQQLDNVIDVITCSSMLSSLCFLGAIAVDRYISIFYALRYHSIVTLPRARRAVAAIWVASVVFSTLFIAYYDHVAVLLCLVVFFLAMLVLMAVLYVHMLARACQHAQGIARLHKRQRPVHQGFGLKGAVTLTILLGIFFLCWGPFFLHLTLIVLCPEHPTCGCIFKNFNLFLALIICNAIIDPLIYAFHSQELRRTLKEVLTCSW

In the case of `COc1ccc(C[C@@H](NC(=O)CCc2c[nH]cn2)C(=O)N2CCC3(CC2)C(=O)N(Cc2ccccc2)CN3c2ccccc2)cc1` [Example 153, N-[(R)-2-(3-Benzyl-4-oxo-1-phenyl-1,3,8-triaza-spiro[4.5]dec-8-yl)-1-(4-methoxy-benzyl)-2-oxo-ethyl]-3-(1H-imidazol-4-yl)-propionamide], the “functional status at MC1-R” value is listed as “partial agonist”. Where the note is “HBL cells that express MC1-R, cAMP”, the pEC50 is 7.92. Where the note is “maximum efficacy compared to reference agonist NDP-α-MSH”, this molecule came in with an Emax of 54%.

One may read the pEC50 as the EC50 on a negative log10 scale, so that one unit is a factor of ten. Higher therefore signals a low EC50. By Emax is commonly meant the size of the effect at its maximum, as opposed to the concentration needed.
